Test results published in patent US9700637B2, “Reaction-based fluorescent probes for detecting zinc” (Massachusetts Institute of Technology, priority 2013, dated 2017).
Values joined by “and” are separate entries in the source; they are usually repeats but may differ in a detail not shown here. Equal values may be shown once.

Key:
[1] = Charge of predominate species in solution at physiological pH; assay type: physicochemical; conditions: physiological pH = 7.4
[2] = tested on: HeLa cells; test: Live cell fluorescence imaging: localization, co-localization and uptake; assay type: cell-based; conditions: fluorescence microscopy, live HeLa cells (Table 1)
Procedure: FIG. 6 depicts live cell imaging of HeLa cells. 500 nM mitotracker Red was bath-applied along with 1 μM DA-ZP1-TPP for 30 min at 37° C. and 5% CO2. After exposure to 25 μM 1:2 zinc:pyrithione, fluorescent images were acquired and the co-localization of the two sensors was assessed. The calculated Pearson's correlation coefficient (r) was r=0.581±0.097 (n=9), which represents the average of 9 ROIs over three independent plates.
FIG. 14 depicts live cell imaging of HeLa cells. 1 μM Lysotracker Red was bath-applied along with 2 μM ZP1-TPP. The calculated Pearson's correlation coefficient (r) was r=0.45±0.15, which represents the average of 9 ROIs over three independent plates.
FIG. 24 depicts fluorescence images of live HeLa cells. HeLa cells were pretreated with a 1 μM solution of DA-ZP1-TPP in dye- and serum-free medium for 30 min (37° C., 5% CO2). […] The signal from MitoTracker Red (c) correlates well with the signal from the zinc-bound sensor (d). Pearson's r=0.64±0.1 (n=18).
FIG. 27 depicts deconvoluted fluorescence microscopy images of live HeLa cells pretreated with ZP1-R9 (5 μM) or DA-ZP1-R9 (2.5 μM) and the indicated organelle stain. Top, ZP1-R9: (a) Differential interference contrast (DIC) image, (b) signal from ZP1-R9, (c) signal from LysoTracker Red, (d) overlay of (b) and (c). Pearson's r=0.42±0.16 (n=8). Bottom, DA-ZP1-R9: (e) DIC, (f) signal from DA-ZP1-R9 after treatment with 25 μM ZnPT, (g) signal from Hoechst 33258, (h) overlay of (f) and (g). Scale bar=25 μm.
FIG. 29 depicts deconvoluted fluorescence microscopy images of live HeLa cells pretreated with 1 μM DA-ZP1-R9 and 100 nM Dextran Red. (a) Differential interference contrast (DIC), (b) signal from DA-ZP1-R9 after addition of 25 μM ZnPT (c) signal from Dextran Red, (d) overlay of (b) and (c). Pearson's r=0.55±0.12 (n=11). Scale bar=25 μm.
FIG. 31 depicts deconvoluted fluorescence microscopy images of ZP1-(Fxr)3 and DA-ZP1-r(Fxr)3 in live HeLa cells. Top, cells pretreated with medium containing 2.5 μM of ZP1-(Fxr)3: (a) Differential interference contrast (DIC) image, (b) signal from ZP1-(Fxr)3, (c) signal from Dextran Red, (d) overlay of (b) and (c). Pearson's r=0.71±0.07. Bottom, cells pretreated with 1 μM DA-ZP1-r(Fxr)3: (e) DIC, (f) signal from DA-ZP1-r(Fx)3 after treatment with 25 μM ZnPT, (g) signal from MitoTracker Red, (h) overlay of (f) and (g). Pearson's r=0.41±0.09. Scale bar=25 μm.
FIG. 33 depicts deconvoluted fluorescence microscopy images of DCF-r(Fxr)3 and DA-DCF-r(Fxr)3 in live HeLa cells. Top, cells pretreated with 5 μM DCF-r(Fxr)3 and 500 nM MitoTracker Red for 30 min. (a) differential contrast image (DIC), (b) signal from DCF-r(Fxr)3, (c) signal from MitoTracker Red. Bottom, cells pretreated with 5 μM DA-DCF-r(Fxr)3 and 500 nM MitoTracker Red for 30 min. (d) DIC, (e) signal from DCF-r(Fxr)3, (f) signal from MitoTracker Red. The global Pearson's r=0.57±0.16 (n=37). Cells with high levels of DA-DCF-r(Fxr)3 (e, red outline) have a higher Pearson's r=0.83±0.08 (n=10). Scale bar=25 μm.
We used HeLa cells as a model system to evaluate the ability of DA-ZP1-TPP to target mitochondria and respond to changes in intracellular zinc levels. […] Over a two-hour period, the fluorescence intensity from the sensor remained constant, implying that the acetylated form is stable against intracellular esterases (FIG. 24e). […] Addition of 100 μM TPEN attenuated the fluorescence signal by ˜2.4-fold (FIG. 24f). […]

[3] = tested on: HeLa cells; test: Live cell fluorescence imaging: response to intracellular zinc (ZnPT/TPEN) and stability in cellulo; assay type: cell-based
Procedure: FIG. 5 depicts live cell imaging of HeLa cells that were bathed in a 1 μM solution of DA-ZP1-TPP in dye and serum free DMEM media for 30 min at 37° C. and 5% CO2. […] There was minimal fluorescent signal from DA-ZP1-TPP, consistent with the quenched fluorescent form of the sensor (top, right).
FIG. 24 depicts fluorescence images of live HeLa cells. HeLa cells were pretreated with a 1 μM solution of DA-ZP1-TPP in dye- and serum-free medium for 30 min (37° C., 5% CO2). […] The signal from MitoTracker Red (c) correlates well with the signal from the zinc-bound sensor (d). Pearson's r=0.64±0.1 (n=18). […]
We used HeLa cells as a model system to evaluate the ability of DA-ZP1-TPP to target mitochondria and respond to changes in intracellular zinc levels. Live HeLa cells were pretreated with medium containing 1 μM DA-ZP1-TPP and 250 nM MitoTracker Red for 30 min (37° C., 5% CO2) prior to imaging (FIG. 24). […] Over a two-hour period, the fluorescence intensity from the sensor remained constant, implying that the acetylated form is stable against intracellular esterases (FIG. 24e). […] Addition of 100 μM TPEN attenuated the fluorescence signal by ˜2.4-fold (FIG. 24f). […] We anticipate that this strategy will be applicable to related families of fluorophores. […]

CC(=O)Oc1c(Cl)cc2c(c1CN(Cc1ccccn1)Cc1ccccn1)Oc1c(cc(Cl)c(OC(C)=O)c1CN(Cc1ccccn1)Cc1ccccn1)C21OC(=O)c2ccc(C(=O)NCC[P+](c3ccccc3)(c3ccccc3)c3ccccc3)cc21 [DA-ZP1-TPP]
Charge of the predominate species in solution [1]: +1 | Localization [2]: Mitochondria | increase in fluorescence intensity on ZnPT ([3]; live HeLa, 1 μM probe, 50 μM ZnPT): ~12.1 fold and ~12 fold | period over which signal intensity was stable in cellulo ([3]; live HeLa, 1 μM, no added zinc): 2 h | attenuation of fluorescence signal by TPEN ([3]; live HeLa, 100 μM TPEN after 50 μM ZnPT): ~2.4 fold

O=C(NCC[P+](c1ccccc1)(c1ccccc1)c1ccccc1)c1ccc2c(c1)C1(OC2=O)c2cc(Cl)c(O)c(CN(Cc3ccccn3)Cc3ccccn3)c2Oc2c1cc(Cl)c(O)c2CN(Cc1ccccn1)Cc1ccccn1 [ZP1-TPP]
Charge of the predominate species in solution [1]: Zwitterion | Localization [2]: Endo/lysosome | response to changing intracellular zinc levels ([3]; live HeLa cells): did not respond significantly to changing intracellular zinc levels
